Several values for one entry are separate records, joined by “and”; a condition that tells them apart may be missing. Identical values can stand only once. Like-named read-outs stand apart in the source and are kept apart here.
Assays:
Type in all cases: binding
[1] = target: T1, PCAF Brd (Homo sapiens, UniProt Q92831); experiment: Differential scanning fluorimetry (DSF), PCAF Brd; settings: compound concentration 10 μM
T1 construct: Human bromodomains were cloned, expressed and purified as previously described; made in house
T1 sequence (Q92831 723-827 limits assumed): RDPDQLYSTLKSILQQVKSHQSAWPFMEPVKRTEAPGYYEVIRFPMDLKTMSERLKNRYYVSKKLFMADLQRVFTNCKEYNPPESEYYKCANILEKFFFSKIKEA
Procedure: (§1) Protein Expression and Purification
(§2) Human bromodomains were cloned, expressed and purified as previously described.[1]
(§3) Differential Scanning Fluorimetry (DSF)
(§4) Thermal melting points were recorded using an Mx3005p Real Time PCR Machine (Stratagene).
(§5) Subject proteins were buffered in 10 mM HEPES at pH 7.5, 500 mM NaCl and assayed in a 96-well […]
(§6) plate at a final concentration of 2 μM in 20 μL volume. Compounds were then added to a final […]
(§7) concentration of 10 μM. SPYRO Orange (Molecular Probes) was used as a fluorescent probe at a […]
(§8) dilution of 1:1000. Excitation and emission filters for the SPYRO-Orange dye were set to 465 nm and […]
(§9) 590 nm, respectively. The temperature was raised with a step of 3 °C/min from 25 °C to 96 °C and […]
(§10) fluorescence readings were taken at each interval. Data was analysed as previously described.[2]
(§11) Bromodomain affinity selectivity panel of (S)-11
(§12) Supplemental Figure 1. DSF Selectivity panel of (S)-11 against 48 human Bromodomains. […]
(§13) ┼Mean ΔTm ± SEM (number of measurements= 2). Compound concentration: 10 μM […]
(§14) (1 picture or pasted object on this page, not shown here)

[2] = target: T1, PCAF Brd; experiment: Isothermal titration calorimetry (ITC), PCAF Brd
Procedure: Isothermal Titration Calorimetry (ITC)
Experiments were carried out on a Nano-ITC Standard Volume Instrument (TA Instruments). All experiments were carried out at 25 °C in 20 mM HEPES pH 7.5, 150 mM NaCl, 0.5 mM TCEP and 5% glycerol. Protein solutions were buffer exchanged by gel filtration. The titrations were conducted using an initial injection of 2 μL followed by 32 injections of 8 μL. Background dilution heat was substracted from each experiment. Thermodynamic parameters were calculated using ΔG = ΔH-T ΔS = -RTlnKB , where KD = 1/KB. ΔG, ΔH and ΔS are changes in free energy, enathalpy and entropy resepectively. Independent single site binding models were employed in data analysis.
Supplemental Figure 3. ITC trace of D-Moses and PCAF Brd […]

[3] = target: T2, GCN5L2 (Homo sapiens, UniProt Q92830); experiment: Differential scanning fluorimetry (DSF), GCN5 (GCN5L2) Brd; settings: compound 10 μM; for ΔTm at 10 µM: read-out: GCN5L2 ΔTm (°C) (DSF)
T2 construct: made in house
T2 sequence (Q92830 728-832 limits assumed): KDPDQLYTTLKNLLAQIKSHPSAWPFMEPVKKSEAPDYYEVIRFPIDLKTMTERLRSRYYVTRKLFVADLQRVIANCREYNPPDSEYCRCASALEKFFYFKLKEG
Procedure: as §1, §2, §3, §4, §5, §6, §7, §8, §9, §10, §11, §12, §13, §14

[4] = Supplemental Table 3, compound concentration 30 μM, protein concentration 280-320 μM, read-out: PCAF KD (μM) (ITC)
[5] = Table 1, read-out: K D [μM] (ITC) PCAF Brd
[6] = Table 2, read-out: K D (nM) (ITC) PCAF Brd

Row | Structure (SMILES) | ΔT m [°C] PCAF (DSF) [1] | Kd [2, 4] | GCN5L2 ΔTm (°C) (DSF) [3] | Kd [2, 5] | ΔTm at 10 µM [3] | ΔT m [°C] PCAF (DSF) ([1]; listed as (S)-17) | Kd [2, 6]
1 | CCC(CNc1nn2c(C(F)(F)F)nnc2c2ccccc12)N(C)C (stereo not shown) [Compound 89] | 0.4 °C | > 30 µM | 0.2 °C |  |  |  | 
2 | FC(F)(F)c1nnc2c3ccccc3c(NCc3ccccc3)nn12 [Compound 85] | 3.7 °C | > 30 µM |  |  | 0.9 °C |  | 
3 | Cc1nnc2c3ccccc3c(N3CCC(N(C)C)C3)nn12 (stereo not shown) [Compound 68] | 0.8 °C | > 30 µM | 0.1 °C |  |  |  | 
4 | C[C@@H](CN(C)C)Nc1nn2c(C(F)(F)F)nnc2c2ccccc12 [Compound (S)‐17] | 0.65 °C |  |  | > 30 µM | 0.2 °C | 0.7 °C | 
5 | Cc1nnc2c3ccccc3c(NCCCCN(C)C)nn12 [Compound 9] | 0.9 °C |  |  | > 30 µM | 0.3 °C |  | 
6 | COc1cccc(N2CC(Nc3nn4c(C)nnc4c4ccccc34)CC2=O)c1 (stereo not shown) [Compound 57] | 0.4 °C | > 30 µM | 0.1 °C |  |  |  | 
7 | CCN1CCCCC1CNc1nn2c(C)nnc2c2ccccc12 (stereo not shown) [Compound 63] | 0.2 °C |  |  |  | 0 °C |  | 
8 | Cc1nnc2c3ccccc3c(NCCN3CCOCC3)nn12 [Compound 98] | 0.7 °C |  |  |  | 0.2 °C |  | 
9 | Cc1nnc2c3ccccc3c(N[C@@H](C)[C@H](c3ccc(C(F)(F)F)cc3)N(C)C)nn12 (relative stereo) [Compound 43] | 9.1 °C |  |  |  | 7.2 °C |  | 0.163 ± 0.117 µM
10 | Cc1nnc2c3ccccc3c(NC(C)CN(C)C)nn12 (stereo not shown) [Compound 11] | 5.6 °C | 0.298 µM |  | 0.3 ± 0.039 µM | 2.5 °C |  | 
11 | Cc1nnc2c3ccccc3c(N[C@@H]3CCC[C@H]3N(C)C)nn12 [Compound 67] | 0.7 °C | 0.321 µM |  |  | 0.3 °C |  | 
12 | Cc1nnc2c3ccccc3c(N3CCN(CCN4CCCCC4)CC3)nn12 [Compound 62] | 0.2 °C | > 30 µM |  |  | 0.3 °C |  | 
13 | Cc1nnc2c3ccccc3c(NCC(=O)c3ccccc3)nn12 [Compound 81] | 1.0 °C |  | 0.3 °C |  |  |  | 
14 | Cc1ccc([C@@H]([C@H](C)Nc2nn3c(C)nnc3c3ccccc23)N(C)C)cc1 (relative stereo) [Compound 41] | 7.8 °C |  |  |  | 4.3 °C |  | 0.16 ± 0.054 µM
15 | Cc1nnc2c3ccccc3c(N[C@@H](C)[C@H](O)c3ccccc3)nn12 [Compound 77] | 0.3 °C |  |  |  | 0.2 °C |  | 
16 | Cc1nnc2c3ccccc3c(NCC3CCCN3C)nn12 (stereo not shown) [Compound 97] | 2.8 °C | 18.2 µM | 0.9 °C |  |  |  | 
17 | COc1ccc([C@@H]([C@H](C)Nc2nn3c(C)nnc3c3ccccc23)N(C)C)cc1 [Compound 44] | 10.3 °C |  |  |  | 6.8 °C |  | 0.179 ± 0.048 µM
18 | Cc1nnc2c3ccccc3c(N3CCCC(N(C)C)C3)nn12 (stereo not shown) [Compound 75] | 0.4 °C | > 30 µM |  |  | 0.2 °C |  | 
19 | CN(C)[C@H]1CCC[C@@H]1Nc1nn2c(C(F)(F)F)nnc2c2ccccc12 [Compound 84] | 0.7 °C | > 30 µM |  |  | 0.2 °C |  | 
20 | Cc1nnc2c3ccccc3c(N3CCN4CCCCC4C3)nn12 (stereo not shown) [Compound 73] | 0.5 °C | > 30 µM | 0.2 °C |  |  |  | 
21 | Cc1nnc2c3ccccc3c(NCC3CCCCN3C)nn12 (stereo not shown) [Compound 60] | 2.9 °C | 1.13 µM |  |  | 1.1 °C |  | 
22 | CCN1CCCC1CNc1nn2c(C(F)(F)F)nnc2c2ccccc12 (stereo not shown) [Compound 91] | 0.1 °C | > 30 µM |  |  | 0.1 °C |  | 

More lines, now with the values ahead:

Row | ΔT m [°C] PCAF (DSF) [1] | Kd [2, 4] | GCN5L2 ΔTm (°C) (DSF) [3] | Kd [2, 5] | ΔTm at 10 µM [3] | ΔT m [°C] PCAF (DSF) ([1]; listed as (S)-17) | Kd [2, 6] | Structure (SMILES)
23 | 0.02 °C | > 30 µM | 0.2 °C |  |  |  |  | CC(C)CC(CN(C)C)Nc1nn2c(C(F)(F)F)nnc2c2ccccc12 (stereo not shown) [Compound 86]
24 |  | 2.3 µM |  |  |  |  |  | Cc1nnc2c3ccccc3c(NC(C)c3ccccn3)nn12 (stereo not shown) [Compound 71]
25 |  | > 30 µM |  |  |  |  |  | Cc1nnc2c3ccccc3c(N[C@@H]3CCCN(C(=O)OCc4ccccc4)C3)nn12 [Compound 65]
26 |  |  |  | > 30 µM |  |  |  | Cc1nnc2c3ccccc3c(NCCCN(C)C)nn12 [Compound 8]
27 | 1.0 °C |  |  |  | 0 °C |  |  | Cc1nnc2c3ccccc3c(NC(CO)c3ccccc3)nn12 (stereo not shown) [Compound 51]
28 | 3.7 °C | 4.3 µM | 0.7 °C |  |  |  |  | CC(=O)O.Cc1nnc2c3ccccc3c(NCCN3CCCC3)nn12 [Compound 59]
29 | 3.3 °C | 1.76 µM |  | 1.8 ± 0.23 µM | 1.1 °C |  |  | CCC(CN(C)C)Nc1nn2c(C)nnc2c2ccccc12 (stereo not shown) [Compound 12]
30 | 0.6 °C | > 30 µM |  |  | 0.1 °C |  |  | Cc1nnc2c3ccccc3c(N[C@H]3CCCN(Cc4ccccc4)C3)nn12 [Compound 56]
31 | 0.9 °C and 0.85 °C |  |  | > 30 µM | 1.1 °C |  |  | Cc1nnc2c3ccccc3c(NC(CC(C)C)CN(C)C)nn12 (stereo not shown) [Compound 13]
32 | 6.2 °C |  |  |  | 2.7 °C |  | 0.223 ± 0.078 µM | Cc1nnc2c3ccccc3c(N[C@@H](C)[C@H](c3ccc(Cl)cc3)N(C)C)nn12 [Compound 42]
33 | 2.7 °C |  |  |  | 0.4 °C |  |  | Cc1nnc2c3ccccc3c(NCC3COCCN3C)nn12 (stereo not shown) [Compound 58]
34 |  | > 30 µM |  |  |  |  |  | CN(C)CCNc1nn2c(C(F)(F)F)nnc2c2ccccc12 [Compound 87]
35 | 0.9 °C | > 30 µM |  |  | 0 °C |  |  | Cc1nnc2c3ccccc3c(NCCN3CCN(C)CC3)nn12 [Compound 69]
36 | 0.4 °C | > 30 µM | 0.1 °C |  |  |  |  | CCN(CC)CC(C)Nc1nn2c(C(F)(F)F)nnc2c2ccccc12 (stereo not shown) [Compound 90]
37 | 3.8 °C |  |  |  | 1.5 °C |  |  | Cc1nnc2c3ccccc3c(NCC3CCCOC3)nn12 (stereo not shown) [Compound 99]
38 |  |  |  | 6.9 ± 1.4 µM |  |  |  | CCC(CNc1nn2c(C)nnc2c2ccccc12)N(C)C (stereo not shown) [Compound 16]
39 | 1.1 °C | > 30 µM | 0.5 °C |  |  |  |  | Cc1nnc2c3ccccc3c(N[C@@H]3CCCN(Cc4ccccc4)C3)nn12 [Compound 64]
40 | 0 °C |  |  |  | 0.2 °C |  |  | Cc1nnc2c3ccccc3c(Cl)nn12 [Compound 94]
41 | 0.8 °C | > 30 µM |  |  | 0 °C |  |  | CN(C)[C@H]1CCCC[C@@H]1Nc1nn2c(C(F)(F)F)nnc2c2ccccc12 [Compound 83]
42 | 9.6 °C |  |  |  | 6.3 °C |  | 0.133 ± 0.015 µM | COC(=O)c1ccc([C@@H]([C@H](C)Nc2nn3c(C)nnc3c3ccccc23)N(C)C)cc1 [Compound 40]
43 | 0 °C |  |  | > 30 µM | 0 °C |  |  | CCN(CC)CC(C)Nc1nn2c(C)nnc2c2ccccc12 (stereo not shown) [Compound 14]
44 |  | > 30 µM |  |  |  |  |  | Cc1nnc2c3ccccc3c(NC(C)c3cnccn3)nn12 (stereo not shown) [Compound 72]
45 | 0.5 °C |  | 0 °C |  |  |  |  | Cc1nnc2c3ccccc3c(N[C@H]3C[C@@H]4CC[C@H]3C4)nn12 [Compound 61]
46 | 1.1 °C |  |  |  | 0.1 °C |  |  | Cc1nnc2c3ccccc3c(NC3CCCN(C)C3=O)nn12 (stereo not shown) [Compound 50]
47 | 0 °C | > 30 µM |  |  | 0.1 °C |  |  | Cc1nnc2c3ccccc3c(NC(C)CN3CCC(C)CC3)nn12 (stereo not shown) [Compound 70]
48 | 0.4 °C | > 30 µM | 0.1 °C |  |  |  |  | CCC(CN(C)C)Nc1nn2c(C(F)(F)F)nnc2c2ccccc12 (stereo not shown) [Compound 88]
49 | 0.6 °C | > 30 µM | 0.1 °C |  |  |  |  | Cc1nnc2c3ccccc3c(N[C@H]3CCCC[C@@H]3N(C)C)nn12 [Compound 66]
50 | 1.7 °C |  |  | 1 µM |  |  |  | Cc1nnc2c3ccccc3c(NCC(c3ccccc3)N(C)C)nn12 (stereo not shown) [Compound 10]
